Structures can show the parent of a compound that is named as a salt. Where two headings read alike, the source gives them in different places.

Test [1] deals with T1, native endogenous human BACE1 in HEK293/APP751sw cells (Homo sapiens, UniProt P56817).
T1 construct: endogenous in cells; host or cells: HEK293p (ATCC CRL-1573) stably expressing APP751sw
The experiment in a line: HEK293Swe whole cell assay (Abeta ELISA). Format: cell-based. On the technique in general: In an ELISA, binding on a coated surface is turned into a signal by an enzyme label.

In another test the target is T2, human BACE1(1-460):Fc (Homo sapiens, UniProt P56817).
T2 construct: made in house; host or cells: HEK293 cells, transient transfection; purified from conditioned media by Protein A chromatography
T2 sequence (P56817 22-460): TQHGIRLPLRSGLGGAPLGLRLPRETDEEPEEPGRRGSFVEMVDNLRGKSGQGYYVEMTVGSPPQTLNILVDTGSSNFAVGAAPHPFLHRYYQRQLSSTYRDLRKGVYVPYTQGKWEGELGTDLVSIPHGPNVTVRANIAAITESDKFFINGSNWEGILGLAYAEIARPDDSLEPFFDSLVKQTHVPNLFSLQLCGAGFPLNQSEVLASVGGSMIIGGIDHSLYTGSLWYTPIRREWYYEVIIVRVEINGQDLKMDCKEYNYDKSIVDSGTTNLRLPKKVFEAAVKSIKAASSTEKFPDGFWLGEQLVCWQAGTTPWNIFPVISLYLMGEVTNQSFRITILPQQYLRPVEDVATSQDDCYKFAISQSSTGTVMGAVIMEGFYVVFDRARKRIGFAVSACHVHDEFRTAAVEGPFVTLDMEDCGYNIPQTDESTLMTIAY
Briefly: BACE1 FRET assay. To be noted: purified recombinant human BACE1(1-460):Fc, FRET substrate, pH 4.6. Format: biochemical.

For test [2], the target named is T3, native, endogenous murine BACE1 in PDAPP primary cortical neurons (Mus musculus, UniProt P56818).
T3 construct: endogenous in cells; host or cells: primary cortical neurons from Embryonic Day 16 PDAPP transgenic mouse embryos
T3 sequence (P56818 46-501): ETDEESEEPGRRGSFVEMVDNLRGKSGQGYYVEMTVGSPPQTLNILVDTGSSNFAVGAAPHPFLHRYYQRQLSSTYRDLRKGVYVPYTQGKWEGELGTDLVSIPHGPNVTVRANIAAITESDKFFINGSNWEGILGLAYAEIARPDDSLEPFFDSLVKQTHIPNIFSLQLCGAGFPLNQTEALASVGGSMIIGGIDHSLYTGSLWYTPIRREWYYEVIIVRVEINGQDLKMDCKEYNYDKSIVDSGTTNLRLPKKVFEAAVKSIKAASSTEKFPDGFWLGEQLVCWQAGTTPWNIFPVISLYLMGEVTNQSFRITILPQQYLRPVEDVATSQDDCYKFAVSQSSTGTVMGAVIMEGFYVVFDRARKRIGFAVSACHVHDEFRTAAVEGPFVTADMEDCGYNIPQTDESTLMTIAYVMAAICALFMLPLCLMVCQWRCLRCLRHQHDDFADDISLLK
Briefly: PDAPP primary neuronal assay (Abeta ELISA). Format: cell-based. To be noted: primary cortical neurons from PDAPP embryos, 24 h.

The subject of the next test is beta-secretase. The experiment in a line: In vivo inhibition of beta-secretase in PDAPP mice. To be noted: 3 hours; for Abeta 1-x peptide level reduction in brain cortex / C99 level reduction in brain cortex / sAPPb level reduction in brain cortex: young female PDAPP mice, vs vehicle-treated mice. From the text: Several animal models, including mouse, guinea pig, dog, and monkey, may be used to screen for inhibition of beta-secretase activity in vivo following compound treatment. Animals used in this invention can be wild type, transgenic, or gene knockout animals. For example, the PDAPP mouse model, prepared as described in Games et al., Nature 373, 523-527 (1995), and other non-transgenic or gene knockout animals are useful to analyze in vivo inhibition of Abeta and sAPPbeta production in the presence of inhibitory compounds. Generally, 2 to 12 month old PDAPP mice, gene knockout mice or non-transgenic animals are administered compound formulated in vehicles, such as corn oil, cyclodextran, phosphate buffers, PHARMASOLVE®, or other suitable vehicles. One to twenty-four hours following the administration of compound, animals are sacrificed, and brains as well as cerebrospinal fluid and plasma are removed for analysis of Abetas, C99, and sAPP fragments. (See Dovey, et al., Journal of Neurochemistry, 76, 173-181 (2001); and Johnson-Wood, et al., Proc. Natl. Acad. Sci. USA, 94, 1550-1555 (1997)).
For standard in vivo pharmacology studies, animals are dosed with various concentrations of compound and compared to a vehicle-treated control group dosed at the same time. For some time course studies, brain tissue, plasma, or cerebrospinal fluid is obtained from selected animals, beginning at time 0 to establish a baseline. Compound is administered to other groups and sacrificed at various times after dosing. Brain tissue, plasma, or cerebrospinal fluid is obtained from selected animals and analyzed for the presence of APP cleavage products, including Abeta peptides, sAPPbeta, and other APP fragments, for example, by specific sandwich ELISA assays. At the end of the test period, animals are sacrificed and brain tissues, plasma, or cerebrospinal fluid are analyzed for the presence of Abeta peptides, C99, and sAPPbeta, as appropriate. Brain tissues of APP transgenic animals are also analyzed for the amount of beta-amyloid plaques following compound treatment.

Setting [3] is: Abeta 1-40 in conditioned media, read-out: HEK 293 Swe A-beta (1-40) ELISA IC50.
Where [4] appears, read: Abeta 1-42 in conditioned media, read-out: HEK 293 Swe A-beta (1-42) ELISA IC50.
Setting [5] is: Abeta 1-40, read-out: PDAPP Neuron A-beta (1-40) ELISA IC50.
Setting [6] is: Abeta 1-42, read-out: PDAPP Neuron A-beta (1-42) ELISA IC50.

T1 sequence (P56817 46-501): as the sequence (P56818 46-501) above, with S6P, I162V, I165L, T180S, A182V, V340I, A393L, H443Q counted along it

The term IC50 denotes the concentration that gives 50% inhibition. Turning to `NC1=N[C@@]2(c3cccc(-c4cncnc4)c3)C[C@H](O)C[C@H]2CS1` (racemic) [Example 32, Racemic (4aRS,6RS,7aSR)-2-Amino-7a-(3-(pyrimidin-5-yl)phenyl)-4,4a,5,6,7,7a-hexahydrocyclopenta[d][1,3]thiazin-6-ol dihydrochloride], the IC50 in test [1] (setting [3]) came to 670 nM; in test [1] (setting [4]) it was 173 nM; on human BACE1(1-460):Fc, 346 nM; in test [2] (setting [5]), 436 nM; in test [2] (setting [6]), 352 nM.

As to `Cl.NC1=N[C@@]2(c3cc(NC(=O)c4ccc(F)cn4)ccc3F)COC[C@H]2CS1` [Example 1, N-(3-((4aS,7aS)-2-Amino-4a,5,7,7a-tetrahydro-4H-furo[3,4-d][1,3]thiazin-7a-yl)-4-fluorophenyl)-5-fluoropicolinamide hydrochloride], in the test with beta-secretase (CSF, 10 mg/kg oral), the “CSF Abeta 1-42 level reduction” value is “approximately 62%”, the “CSF Abeta 1-x level reduction” value is reported as “approximately 62%”, the “CSF sAPPalpha levels” value is given as “unchanged” and the “CSF sAPPbeta level reduction” value is 22%. In addition, in the test with beta-secretase (10 mg/kg oral), the “Abeta 1-x peptide level reduction in brain cortex” value is given as “approximately 54%”, the “C99 level reduction in brain cortex” value was approximately 34% and the “sAPPb level reduction in brain cortex” value was approximately 42%. Further, in the test on beta-secretase (10 mg/kg subcutaneous), the “Abeta 1-x peptide level reduction in brain cortex” value is given as “approximately 64%”, the “C99 level reduction in brain cortex” value is listed as approximately 60% and the “sAPPb level reduction in brain cortex” value is on record as approximately 44%.

Take `NC1=N[C@@]2(c3cc(NC(=O)c4nccs4)ccc3F)CCOC[C@H]2CS1` [Example 8, N-(3-((8aS)-2-Amino-4,4a,5,7,8,8a-hexahydropyrano[4,3-d][1,3]thiazin-8a-yl)-4-fluorophenyl)thiazole-2-carboxamide hydrochloride]: the IC50 came to 78 nM in test [1] (setting [3]); 89.6 nM in test [1] (setting [4]); 179 nM on human BACE1(1-460):Fc; 32.8 nM in test [2] (setting [5]); 41.3 nM in test [2] (setting [6]).

As to `NC1=N[C@@]2(c3cccc(-c4cncnc4)c3)CCCC[C@H]2CS1` [Example 25, (8aS)-8a-(3-(Pyrimidin-5-yl)phenyl)-4a,5,6,7,8,8a-hexahydro-4H-benzo[d][1,3]thiazin-2-amine dihydrochloride], the IC50 was found to be 1360 nM in test [1] (setting [3]); 1150 nM in test [1] (setting [4]); 731 nM at human BACE1(1-460):Fc; 734 nM in test [2] (setting [5]); 659 nM in test [2] (setting [6]).

The record behind these values is patent publication US8278441B2, “BACE inhibitors” (Eli Lilly and Company, priority 2009, dated 2012).
